Consider five compounds from patent US5767297A, “Taxoid derivative and method of producing thereof” (Ensuiko Sugar Refining Co., Ltd., priority 1997, dated 1998).

SMILES strings stand for the structures. In brackets after ≈: the same amount, converted by molar mass.

By solubility is commonly meant how much of the substance goes into solution per volume. Low readings indicate little dissolved substance, high ones much dissolved substance. Broadly, the Solubility is the dissolved amount per volume that the medium holds.

Data set [1] is described as follows: stability in aqueous solutions. The data set is classed as physicochemical.
Data set [2] can be described thus: solubility in water (stirred 18 hours, filtrate analyzed by HPLC).
Procedure: (§1) After stirring, supernatant was filtered by a membrane filter (0.45,μm) and a filtate was analyzed by HPLC.
(§2) Colum: Taxil 5μ (4.6×250 mm), made by MetaChem
Solvent: MeOH/H2 O (80/20)
Detector: photodiode detector (230 nm)
The conditions of data set [3]: literature, I. Ringer et al.; cited from earlier work.
The conditions of data set [4]: water, 18 h.
Procedure: as §1, §2
Solvent: MeOH/H2 O (80/20)
Detector: photodiode detector (230 nm)
The test system of another data set is tubulin. Description: microtubule depolymerization-inhibiting activity (absorbance at 350 nm after adding calcium chloride). It counts as biochemical. Particulars: relative to paclitaxel; 5 μM. As to the method:
Next, each of the above-described samples is mixed with tubulin (a main constituting protein of microtubule) and allowed to react at 37° C. for 15 minutes. Absorbance at 350 nm of the reaction solution was measured at 2, 5, 10 and 15 minutes after initiation of the reaction. Also, after the reaction ended, calcium chloride was added and, 5 minutes after this adding, absorbance at 350 nm was again measured. From each measured value was determined relative activity of each sample in the case that polymerization-promoting activity and depolymerization-inhibiting activity were taken as 100, and the results are shown in Table 2.

For the compound `CC(=O)O[C@H]1C(=O)[C@]2(C)[C@@H](OC(=O)COC3O[C@H](CO)[C@@H](O)[C@H](O)[C@H]3O)C[C@H]3OC[C@@]3(OC(C)=O)[C@H]2[C@H](OC(=O)c2ccccc2)[C@]2(O)C[C@H](OC(=O)[C@H](OC(=O)COC3O[C@H](CO)[C@@H](O)[C@H](O)[C@H]3O)[C@@H](NC(=O)c3ccccc3)c3ccccc3)C(C)=C1C2(C)C` (some centres unmarked) [2',7-S-paclitaxel, Diglucosyloxyacetyl-2',7-paclitaxel], in data set [1], the “stability in aqueous solutions” value was “decomposed to paclitaxel in aqueous solutions and unstable in aqueous solutions”. The compound further gave a solubility at 18 h in data set [2] of 48.4 µg/mL (≈ 37.4 µM). In the case of `CC(=O)O[C@@]12CO[C@@H]1C[C@H](O)[C@@]1(C)C(=O)[C@H](O)C3=C(C)[C@@H](OC(=O)[C@H](O)[C@@H](NC(=O)OC(C)(C)C)c4ccccc4)C[C@@](O)([C@@H](OC(=O)c4ccccc4)[C@H]21)C3(C)C` [docetaxel], the “solubility in water relative to paclitaxel” value in data set [3] is 1.3 times. With `CC(=O)O[C@H]1C(=O)[C@@]2(C)[C@H]([C@H](OC(=O)c3ccccc3)[C@]3(O)C[C@H](OC(=O)[C@H](O)[C@@H](NC(=O)c4ccccc4)c4ccccc4)C(C)=C1C3(C)C)[C@]1(OC(C)=O)CO[C@@H]1C[C@@H]2O` [Paclitaxel, paclitaxel], the Solubility in data set [4] was found to be 0.4 µg/mL (≈ 0.468 µM). Consider `CC(=O)O[C@H]1C(=O)[C@]2(C)[C@@H](OC(=O)COC3O[C@H](CO)[C@@H](O)[C@H](O)[C@H]3O)C[C@H]3OC[C@@]3(OC(C)=O)[C@H]2[C@H](OC(=O)c2ccccc2)[C@]2(O)C[C@H](OC(=O)[C@H](O)[C@@H](NC(=O)c3ccccc3)c3ccccc3)C(C)=C1C2(C)C` (some centres unmarked) [7-S-paclitaxel, Glucosyloxyacetyl-7-paclitaxel], for which the “depolymerization-inhibiting activity compared with paclitaxel (in words)” value with tubulin is “more than twice as potent as that of paclitaxel”. Besides, the solubility at 18 h in data set [2] is 14.7 µg/mL (≈ 13.7 µM). Regarding `CC(=O)O[C@H]1C(=O)[C@@]2(C)[C@H]([C@H](OC(=O)c3ccccc3)[C@]3(O)C[C@H](OC(=O)[C@H](OC(=O)COC4O[C@H](CO)[C@@H](O)[C@H](O)[C@H]4O)[C@@H](NC(=O)c4ccccc4)c4ccccc4)C(C)=C1C3(C)C)[C@]1(OC(C)=O)CO[C@@H]1C[C@@H]2O` (some centres unmarked) [2'-S-paclitaxel, Glucosyloxyacetyl-2'-paclitaxel], the “stability in aqueous solutions” value in data set [1] was “decomposed to paclitaxel in aqueous solutions and unstable in aqueous solutions”. In data set [2], the solubility at 18 h turned out to be 30.6 µg/mL (≈ 28.5 µM).
